Here are results for four compounds from the supplement of paper PMC10307832.

Each structure is given as a SMILES string.

The first test concerns NCI-H1437. The test is described as follows: relative viability (nuclei count vs DMSO), 5 days (fraction); higher = more cells survive. Conditions: first compound 6.325 µM. In outline: (§1)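 Relative viability equals treated-well nuclei counts divided by vehicle-well nuclei counts. Counts came from 4× images of lung cancer cell lines grown in 1536-well plates for 5 days after pin-tool dosing on the day after seeding. Dosing used one drug alone or a fixed anchor-drug dose plus five library-drug doses (not always all listed) in √10 steps, and values are medians of duplicate plates.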
The compound `COCC1(CO)C(=O)C2CCN1CC2` (stereo unspecified) [PRIMA-1MET] + Cc1nc(Nc2ncc(C(=O)Nc3c(C)cccc3Cl)s2)cc(N2CCN(CCO)CC2)n1 [Dasatinib] (partner 0.075 µM) showed a relative viability of 0.405.

For `COCC1(CO)C(=O)C2CCN1CC2` (stereo unspecified) [PRIMA-1MET] + O=C(c1cc(Cc2n[nH]c(=O)c3ccccc23)ccc1F)N1CCN(C(=O)C2CC2)CC1 [Olaparib] (partner 8 µM), the relative viability came out at 0.65.

The test is the same for the next values; noted with them: first compound 20 µM.
Turning to `COCC1(CO)C(=O)C2CCN1CC2` (stereo unspecified) [PRIMA-1MET] + N=C(N)NC(=N)NCCc1ccccc1 [Phenformin] (partner 250 µM), the relative viability was found to be 0.294.

Compound `COCC1(CO)C(=O)C2CCN1CC2` (stereo unspecified) [PRIMA-1MET] + CC(=O)c1c(C)c2cnc(Nc3ccc(N4CCNCC4)cn3)nc2n(C2CCCC2)c1=O [Palbociclib] (partner 0.5 µM) showed a relative viability of 0.299.

The compound `COCC1(CO)C(=O)C2CCN1CC2` (stereo unspecified) [PRIMA-1MET] + Cc1nc(Nc2ncc(C(=O)Nc3c(C)cccc3Cl)s2)cc(N2CCN(CCO)CC2)n1 [Dasatinib] (partner 0.075 µM) yielded a relative viability of 0.286.

`COCC1(CO)C(=O)C2CCN1CC2` (stereo unspecified) [PRIMA-1MET] + O=C(c1cc(Cc2n[nH]c(=O)c3ccccc23)ccc1F)N1CCN(C(=O)C2CC2)CC1 [Olaparib] (partner 8 µM) registered a relative viability of 0.614.

The subject of the next test is NCI-H1651. The test is described as above. Conditions: first compound 0.2 µM. Summed up:
as §1
As to `COCC1(CO)C(=O)C2CCN1CC2` (stereo unspecified) [PRIMA-1MET] + N=C(N)NC(=N)NCCc1ccccc1 [Phenformin] (partner 250 µM), the relative viability was determined as 0.297.

For `COCC1(CO)C(=O)C2CCN1CC2` (stereo unspecified) [PRIMA-1MET] + CC(=O)c1c(C)c2cnc(Nc3ccc(N4CCNCC4)cn3)nc2n(C2CCCC2)c1=O [Palbociclib] (partner 0.5 µM), the relative viability is 0.602.

Consider `COCC1(CO)C(=O)C2CCN1CC2` (stereo unspecified) [PRIMA-1MET] + Cc1nc(Nc2ncc(C(=O)Nc3c(C)cccc3Cl)s2)cc(N2CCN(CCO)CC2)n1 [Dasatinib] (partner 0.075 µM), for which the relative viability turned out to be 0.455.

`COCC1(CO)C(=O)C2CCN1CC2` (stereo unspecified) [PRIMA-1MET] + O=C(c1cc(Cc2n[nH]c(=O)c3ccccc23)ccc1F)N1CCN(C(=O)C2CC2)CC1 [Olaparib] (partner 8 µM) gave a relative viability of 0.226.

Staying with this test, now noted: first compound 0.6325 µM.
`COCC1(CO)C(=O)C2CCN1CC2` (stereo unspecified) [PRIMA-1MET] + N=C(N)NC(=N)NCCc1ccccc1 [Phenformin] (partner 250 µM) had a relative viability of 0.244.

In turn, `COCC1(CO)C(=O)C2CCN1CC2` (stereo unspecified) [PRIMA-1MET] + CC(=O)c1c(C)c2cnc(Nc3ccc(N4CCNCC4)cn3)nc2n(C2CCCC2)c1=O [Palbociclib] (partner 0.5 µM) came in with a relative viability of 0.389.

The compound `COCC1(CO)C(=O)C2CCN1CC2` (stereo unspecified) [PRIMA-1MET] + Cc1nc(Nc2ncc(C(=O)Nc3c(C)cccc3Cl)s2)cc(N2CCN(CCO)CC2)n1 [Dasatinib] (partner 0.075 µM) came in with a relative viability of 0.468.

In turn, `COCC1(CO)C(=O)C2CCN1CC2` (stereo unspecified) [PRIMA-1MET] + O=C(c1cc(Cc2n[nH]c(=O)c3ccccc23)ccc1F)N1CCN(C(=O)C2CC2)CC1 [Olaparib] (partner 8 µM) displayed a relative viability of 0.158.

Still in this test, the particulars now being: first compound 2 µM.
The compound `COCC1(CO)C(=O)C2CCN1CC2` (stereo unspecified) [PRIMA-1MET] + N=C(N)NC(=N)NCCc1ccccc1 [Phenformin] (partner 250 µM) had a relative viability of 0.293.

`COCC1(CO)C(=O)C2CCN1CC2` (stereo unspecified) [PRIMA-1MET] + CC(=O)c1c(C)c2cnc(Nc3ccc(N4CCNCC4)cn3)nc2n(C2CCCC2)c1=O [Palbociclib] (partner 0.5 µM) gave a relative viability of 0.473.

In the case of `COCC1(CO)C(=O)C2CCN1CC2` (stereo unspecified) [PRIMA-1MET] + Cc1nc(Nc2ncc(C(=O)Nc3c(C)cccc3Cl)s2)cc(N2CCN(CCO)CC2)n1 [Dasatinib] (partner 0.075 µM), the relative viability came out at 0.423.

The compound `COCC1(CO)C(=O)C2CCN1CC2` (stereo unspecified) [PRIMA-1MET] + O=C(c1cc(Cc2n[nH]c(=O)c3ccccc23)ccc1F)N1CCN(C(=O)C2CC2)CC1 [Olaparib] (partner 8 µM) displayed a relative viability of 0.179.

Staying with this test, now noted: first compound 6.325 µM.
Turning to `COCC1(CO)C(=O)C2CCN1CC2` (stereo unspecified) [PRIMA-1MET] + N=C(N)NC(=N)NCCc1ccccc1 [Phenformin] (partner 250 µM), the relative viability turned out to be 0.377.

Consider `COCC1(CO)C(=O)C2CCN1CC2` (stereo unspecified) [PRIMA-1MET] + CC(=O)c1c(C)c2cnc(Nc3ccc(N4CCNCC4)cn3)nc2n(C2CCCC2)c1=O [Palbociclib] (partner 0.5 µM), for which the relative viability stood at 0.569.

In the case of `COCC1(CO)C(=O)C2CCN1CC2` (stereo unspecified) [PRIMA-1MET] + Cc1nc(Nc2ncc(C(=O)Nc3c(C)cccc3Cl)s2)cc(N2CCN(CCO)CC2)n1 [Dasatinib] (partner 0.075 µM), the relative viability was found to be 0.415.

Regarding `COCC1(CO)C(=O)C2CCN1CC2` (stereo unspecified) [PRIMA-1MET] + O=C(c1cc(Cc2n[nH]c(=O)c3ccccc23)ccc1F)N1CCN(C(=O)C2CC2)CC1 [Olaparib] (partner 8 µM), the relative viability is 0.202.

Still in this test, the particulars now being: first compound 20 µM.
In turn, `COCC1(CO)C(=O)C2CCN1CC2` (stereo unspecified) [PRIMA-1MET] + N=C(N)NC(=N)NCCc1ccccc1 [Phenformin] (partner 250 µM) yielded a relative viability of 0.339.

`COCC1(CO)C(=O)C2CCN1CC2` (stereo unspecified) [PRIMA-1MET] + CC(=O)c1c(C)c2cnc(Nc3ccc(N4CCNCC4)cn3)nc2n(C2CCCC2)c1=O [Palbociclib] (partner 0.5 µM) displayed a relative viability of 0.526.

Take `COCC1(CO)C(=O)C2CCN1CC2` (stereo unspecified) [PRIMA-1MET] + Cc1nc(Nc2ncc(C(=O)Nc3c(C)cccc3Cl)s2)cc(N2CCN(CCO)CC2)n1 [Dasatinib] (partner 0.075 µM): the relative viability turned out to be 0.432.

`COCC1(CO)C(=O)C2CCN1CC2` (stereo unspecified) [PRIMA-1MET] + O=C(c1cc(Cc2n[nH]c(=O)c3ccccc23)ccc1F)N1CCN(C(=O)C2CC2)CC1 [Olaparib] (partner 8 µM) had a relative viability of 0.184.
